Assay results taken from ChEMBL document CHEMBL2177056, “Bis(arylvinyl)pyrazines, -pyrimidines, and -pyridazines as imaging agents for tau fibrils and β-amyloid plaques in Alzheimer's disease models” (J Med Chem, 2012).
Calls of active or inactive are those of the source. The calls are words filed in the database; no cut-off is given here.

How the values were obtained:
[1] = molecular target: T1, Microtubule-associated protein tau (Homo sapiens, UniProt P10636); assay: Binding affinity to extracellular tau plaques in Alzheimer patient brain by fluorescence microscopic analysis
T1 sequence (P10636 whole entry): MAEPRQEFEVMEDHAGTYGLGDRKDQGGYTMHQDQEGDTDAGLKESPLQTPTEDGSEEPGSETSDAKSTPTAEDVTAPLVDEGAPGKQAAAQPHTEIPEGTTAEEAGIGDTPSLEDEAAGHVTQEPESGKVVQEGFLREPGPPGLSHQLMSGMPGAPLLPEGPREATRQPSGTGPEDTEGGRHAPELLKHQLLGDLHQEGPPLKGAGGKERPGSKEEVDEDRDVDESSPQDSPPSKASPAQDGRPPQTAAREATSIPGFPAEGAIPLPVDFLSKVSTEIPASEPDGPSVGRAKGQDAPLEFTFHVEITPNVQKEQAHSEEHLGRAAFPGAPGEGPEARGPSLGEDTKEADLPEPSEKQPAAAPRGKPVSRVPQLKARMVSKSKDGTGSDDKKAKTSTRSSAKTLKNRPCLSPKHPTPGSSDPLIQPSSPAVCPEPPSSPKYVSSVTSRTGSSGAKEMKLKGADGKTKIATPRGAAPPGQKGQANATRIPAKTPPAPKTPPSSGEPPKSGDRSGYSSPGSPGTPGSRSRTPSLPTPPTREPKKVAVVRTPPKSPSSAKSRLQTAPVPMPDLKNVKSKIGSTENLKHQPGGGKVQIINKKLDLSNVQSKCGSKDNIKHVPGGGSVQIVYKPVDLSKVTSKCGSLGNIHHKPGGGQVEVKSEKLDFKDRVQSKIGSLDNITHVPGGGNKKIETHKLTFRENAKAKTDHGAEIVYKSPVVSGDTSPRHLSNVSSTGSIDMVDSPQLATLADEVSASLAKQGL

[2] = Displacement of thiazene red from amyloid beta (1 to 40) aggregate
[3] = molecular target: T1, Microtubule-associated protein tau; assay: Displacement of thiazene red from tau aggregate
[4] = molecular target: T1, Microtubule-associated protein tau; assay: Binding affinity to intracellular fibrillar tau in Alzheimer patient brain by fluorescence microscopic analysis; format: cell-based
[5] = Selectivity ratio of IC50 for amyloid beta (1 to 40) aggregate to IC50 for tau aggregate
[6] = Lipophilicity, log P of the compound; format: physicochemical; settings: octanol/water
[7] = Selectivity ratio of IC50 for tau aggregate to IC50 for amyloid beta (1 to 40) aggregate
HepG2 = assay: Cytotoxicity against human HepG2 cells; format: cell-based
Mus musculus = assay: Binding affinity to amyloid beta plaque in transgenic mouse brain overexpressing APP Swedish mutant/PS1deltaE9 at 2 mg/kg, ip after 4 hrs by fluorescence microscopic analysis; format: functional, organism-based; design: dose 2 mg/kg
[8] = molecular target: T1, Microtubule-associated protein tau; assay: Binding affinity to tau aggregate in Alzheimer patient bowmans gland of olfactory epithelium
[9] = molecular target: Amyloid-beta precursor protein (Homo sapiens) (UniProt P05067); assay: Binding affinity to intravascular amyloid beta angiopathies in Alzheimer patient brain by fluorescence microscopic analysis
Amyloid-beta precursor protein (Homo sapiens), sequence (P05067 whole entry): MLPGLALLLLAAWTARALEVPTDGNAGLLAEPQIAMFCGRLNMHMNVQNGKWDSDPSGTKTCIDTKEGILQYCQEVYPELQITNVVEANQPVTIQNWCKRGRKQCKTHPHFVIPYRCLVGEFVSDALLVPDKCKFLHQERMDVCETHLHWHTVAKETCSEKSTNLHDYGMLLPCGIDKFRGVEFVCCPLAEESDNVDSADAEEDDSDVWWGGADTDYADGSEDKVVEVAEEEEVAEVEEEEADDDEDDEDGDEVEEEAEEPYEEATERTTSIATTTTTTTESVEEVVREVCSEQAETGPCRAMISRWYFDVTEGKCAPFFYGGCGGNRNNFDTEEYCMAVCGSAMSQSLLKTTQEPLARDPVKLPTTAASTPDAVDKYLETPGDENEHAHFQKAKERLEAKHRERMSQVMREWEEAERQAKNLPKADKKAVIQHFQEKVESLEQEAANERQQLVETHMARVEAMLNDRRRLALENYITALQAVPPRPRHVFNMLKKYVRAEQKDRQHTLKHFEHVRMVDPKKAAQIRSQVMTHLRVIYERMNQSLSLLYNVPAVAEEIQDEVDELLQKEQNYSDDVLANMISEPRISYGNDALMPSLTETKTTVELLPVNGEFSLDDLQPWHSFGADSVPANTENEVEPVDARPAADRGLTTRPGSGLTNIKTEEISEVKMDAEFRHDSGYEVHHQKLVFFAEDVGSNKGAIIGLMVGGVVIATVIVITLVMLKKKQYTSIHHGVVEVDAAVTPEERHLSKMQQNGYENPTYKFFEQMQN

[10] = molecular target: Amyloid-beta precursor protein (Homo sapiens) (UniProt P05067); assay: Binding affinity to extracellular amyloid beta plaques in Alzheimer patient brain by fluorescence microscopic analysis
[11] = Displacement of methoxy-XO4 from amyloid beta (1 to 40) aggregate

Compound	Activity [1]	Activity [4]	IC50 ([2]; read-out: IC50) [nM]	IC50 ([3]; read-out: IC50) [nM]	also measured
CN(C)c1ccc(/C=C/c2cc(-c3ccccc3)c(/C=C/c3ccc(N(C)C)cc3)nn2)cc1	Active	Active			IC50 [2]: Not Active; IC50 [3]: Not Active
Cn1cccc1/C=C/c1cc(-c2ccccc2)c(/C=C/c2cccn2C)nn1	Active	Active			IC50 [2]: Not Active; IC50 [3]: Not Active
COc1ccc(-c2cc(/C=C/c3ccc(N(C)C)cc3)nnc2/C=C/c2ccc(N(C)C)cc2)cc1	Active	Active	4570	1590	
CC(C)c1ccc(/C=C/c2cnc(/C=C/c3ccc(C(C)C)cc3)cn2)cc1	Active	Active			IC50 [2]: Not Active; IC50 [3]: Not Active
COc1cc(/C=C/c2ccc(O)cc2)ccc1/C=C/c1ccc(O)cc1			140	246	Ratio IC50 [5]: 1.8; logP [6]: 2.6
CN(C)c1ccc(/C=C/c2cc(/C=C/c3ccc(N(C)C)cc3)ncn2)cc1	Active	Active	54	4	Ratio IC50 [7]: 13.5; Activity (HepG2): Non-toxic; Activity (Mus musculus): Active; Activity [8]: Active
Cn1cccc1/C=C/c1cnc(/C=C/c2cccn2C)cn1	Active	Active			
CN(C)c1ccc(/C=C/C=C/c2cc(/C=C/C=C/c3ccc(N(C)C)cc3)ncn2)cc1	Active	Active	3	2	
CN(C)c1ccc(/C=C/c2cnc(/C=C/c3ccc(N(C)C)cc3)cn2)cc1	Active	Active			Activity (Mus musculus): Active; Activity [9]: Active; Activity [10]: Active
COc1ccc(/C=C/c2cnc(/C=C/c3ccc(OC)cc3)cn2)cc1	Active	Active	17	13	
CN(C)c1ccc(/C=C/c2cc(-c3ccccc3F)c(/C=C/c3ccc(N(C)C)cc3)nn2)cc1	Active	Active	10100	1250	
[11CH3]Oc1cc(/C=C/c2ccc(O)cc2)ccc1/C=C/c1ccc(O)cc1					Ki [11]: 26.8 nM

More lines, main results first:

Activity [1]	Activity [4]	IC50 ([2]; read-out: IC50) [nM]	IC50 ([3]; read-out: IC50) [nM]	Compound	also measured
Active	Active	51	42	CN1CCN(c2ccc(/C=C/c3cnc(/C=C/c4ccc(N5CCN(C)CC5)cc4)cn3)cc2)CC1	
Active	Active	156	17	C(=C\c1cc(/C=C/c2ccc(N3CCCCC3)cc2)ncn1)/c1ccc(N2CCCCC2)cc1	
Active	Active	7590	4710	C(=C\c1cc(-c2ccccc2)c(/C=C/c2ccc(N3CCOCC3)cc2)nn1)/c1ccc(N2CCOCC2)cc1	
Active	Active	2380	7470	CN1CCN(c2ccc(/C=C/c3cc(/C=C/c4ccc(N5CCN(C)CC5)cc4)ncn3)cc2)CC1	
Active	Active			C(=C\c1cnc(/C=C/c2ccc(N3CCCCC3)cc2)cn1)/c1ccc(N2CCCCC2)cc1	
Active	Active			C(=C\c1cnc(/C=C/c2ccc(N3CCCC3)cc2)cn1)/c1ccc(N2CCCC2)cc1	
Active	Active	52	2	C(=C\c1cc(/C=C/c2ccc(N3CCCC3)cc2)ncn1)/c1ccc(N2CCCC2)cc1	Activity (HepG2): Non-toxic; Activity (Mus musculus): inactive
Active	Active	43	6	C(=C\c1cnc(/C=C/c2ccc(N3CCOCC3)cc2)cn1)/c1ccc(N2CCOCC2)cc1	
Active	Active			C(=C\c1cc(/C=C/c2ccc(N3CCOCC3)cc2)ncn1)/c1ccc(N2CCOCC2)cc1	IC50 [2]: Not Active; IC50 [3]: Not Active
